Source: patent publication USRE47193E1, “Selectively substituted quinoline compounds” (EISAI R&D MANAGEMENT CO., LTD., priority 2013, dated 2019)

System: IFN-regulated genes
Assay: Interferon gene expression in whole blood (qPCR TLDA panel, IFN score), Pristane model
Assay type: in vivo, mouse
Settings: for disease up-regulated IFN-regulated genes reduced by treatment vs. vehicle: 13 weeks of treatment, Student's t-test
Protocol: FIG. 3A through FIG. 3E show results of testing compound ER-899742 in the Pristane: DBA/1 strain lupus disease model. Figure Legend: Female DBA/1 mice at 9 weeks of age were given an intraperitoneal injection of 0.5 ml pristane or PBS. At 9 weeks post-pristane animals were bled for auto-antibody titers. Once-a-day oral dosing with Vehicle (Veh; 0.5% methyl-cellulose) or 33 mg/kg, 100 mg/kg, or 300 mg/kg of ER-899742 was begun 10 weeks after pristane injection and continued for 13 weeks of treatment. Mice were euthanized after 13 weeks of compound treatment, and anti-dsDNA (FIG. 3A), anti-Sm/nRNP (FIG. 3B), anti-histone (FIG. 3C) and anti-RiboP (FIG. 3D) titers were measured in blood plasma samples by ELISA (statistical significance of treatment versus vehicle determined by ANOVA with Dunnett's post-test). (FIG. 3E) The expression of IFN-regulated genes in whole blood was measured by a qPCR panel after 13 weeks of treatment with 300 mg/kg of ER-899742, and an IFN gene signature score was calculated (see Pharmacology Materials and Methods section for details regarding IFN score calculation).
FIG. 7A through FIG. 7G show the effect of dosing with ER-899742 in Pristane-induced disease in DBA/1J mice. Figure Legend: Female DBA/1 mice at 9 weeks of age were given an intraperitoneal injection of 0.5 ml pristane or PBS. At 10 weeks post-pristane animals were bled for autoantibody titers. Once-a-day oral dosing with Vehicle (Veh; 0.5% methyl-cellulose) or 33 mg/kg, or 300 mg/kg of ER-899742 was begun 11 weeks after pristane injection and continued for 14 weeks of treatment. Mice were euthanized after 14 weeks of compound treatment, and anti-dsDNA (FIG. 7A), anti-RiboP (FIG. 7B), anti-Sm/nRNP (FIG. 7C), and anti-histone (FIG. 7D) titers were measured in blood plasma samples by ELISA (statistical significance of treatment versus vehicle determined by ANOVA with Dunnett's post-test). The same plasma was used to measure total IgG titers by ELISA at the end of dosing (FIG. 7E). […] Pristane-treated mice in this experiment developed arthritis, with swollen joints in the rear paws. Arthritis scores were assigned according to severity, each paw was scored on a scale of 0-4 based on signs of swelling and inflammation. Scores were summed for the two hind paws assessed on each animal, and graphed in FIG. 7F with statistical assessment as for ELISA titers above.
Assessment of interferon gene expression in whole blood. The expression of IFN-regulated genes in whole blood was measured by qPCR. Briefly, mice were euthanized, blood was collected via the vena cava, and 100 ul was preserved in tubes containing RNAlater (Ambion, Austin Tex.). Total RNA was isolated using the Mouse RiboPure Blood RNA Isolation Kit (Ambion). RNA concentrations were determined using a NanoDrop ND-1000 spectrophotometer (Thermo Scientific, Waltham Mass.). First strand cDNA was synthesized from 100 ng total RNA using SuperScript® VILO™ Master Mix (Life Technologies, Grand Island, N.Y.). After reverse transcription, cDNA was diluted with nuclease-free water and mixed with TaqMan® Fast Advanced Master Mix (Applied Biosystems). The mixture was then applied to a custom TaqMan® Low Density Array (TLDA) manufactured by Applied Biosystems, and qPCR was performed on the ABI 7900HT Fast Real-time PCR System (Applied Biosystems). Raw data was collected using RQ Manager 1.2.1 (Applied Biosystems) and analyzed using GeneData Analyst 2.2 software (GeneData).
The TLDA panel contained as many as 45 target genes chosen from Table 9 below, and 3 housekeeping genes for normalization. The housekeeping gene Hprt1 was chosen for normalization based on coefficient-of-variation. Relative quantities were determined for the target genes and used to calculate a fold change for each diseased mouse relative to the non-diseased control group receiving intraperitoneal PBS injection only. […]

Row | Structure (SMILES) | disease up-regulated IFN-regulated genes reduced by treatment vs. vehicle | interferon score, treated vs vehicle-treated (13 weeks of treatment with 300 mg/kg) | interferon score, treated vs vehicle-treated (14 weeks of treatment experiment (FIG. 7)) | disease-related interferon-modulated genes downregulated (14 weeks of treatment experiment (FIG. 7G)) | expression of IFN-modulated genes in whole blood (Pristane model, summary of key findings)
1 | C[C@@H]1CN(c2ccc(C#N)c3ncccc23)C[C@H](C(=O)NC2CCN(C)CC2)O1 [ER-899464, (2R,6R)-4-(8-cyanoquinolin-5-yl)-6-methyl-N-(1-methylpiperidin-4-yl)morpholine-2-carboxamide] | none of the disease up-regulated genes shown in FIG. 3B were affected |  |  |  | 
2 | C[C@@H]1CN(c2ccc(C#N)c3ncccc23)C[C@H](C(=O)N[C@H]2CNC[C@H]2F)O1.Cl [ER-899742, (2R,6R)-4-(8-cyanoquinolin-5-yl)-N-[(3S,4R)-4-fluoropyrrolidin-3-yl]-6-methylmorpholine-2-carboxamide hydrochloride] | six genes were significantly reduced | no significant difference | no significant difference | downregulation of five out of 28 disease-related interferon-modulated genes | Decreased expression of some IFN-modulated genes
